Data published in US11389440B2, “PIM kinase inhibitors in combination with autophagy inhibitors for treatment of cancers” (UNIVERSITY OF MARYLAND, BALTIMORE COUNTY, priority 2017, dated 2022).

Legend:
[1] = test system: acute myeloid leukemia cells (EOL1); experiment: MTT assay of EOL1 cells treated with AZD1208 and chloroquine alone and in combination; CI by CompuSyn; format: cell-based, human; conditions: EOL1, 48 hours, scale 0-1
Procedure: (§1) General experimental procedure: 20,000 (EOL1) cells were seeded per well in 96-well plates. […] At 48 hours the MTT metabolism indicative of number of live cells was measured by MTT assay (Promega, Cat: G4000). The resulting values were used to evaluate the Fa (fraction affected) values, which were plugged into the CompuSyn software to calculate the combination indices (CI values) at ED50, ED75, ED90 and ED95 (ED—Effective dose of combination).
The data were analyzed using CompuSyn, an algorithm based on the Chao-Talalay method for detecting drug synergy (3).
Table 3. […] CI values were determined using CompuSyn at 50%, 75%, 90%, and 95% growth inhibition (GI) Cell growth was measured using standard 3-(4,5-dimethylthiazol-2-yl)-2,5-diphenyltetrazolium bromide (MTT) assays.

Molm16 cells = Molm16 cells treated with AZD1208 in combination with autophagy inhibitors (FA values, CI values); format: cell-based; design: key: fraction of cells affected by treatment (0–1)
Procedure: as §1
These are values of drug dose and effect (fraction of cells affected by the treatment—FA values). The treatment time is 72 hours.
(§2) The data presented in this Table 5 is from an experiment in which Molm16 cells were treated with AZD1208 in combination with verteporfin (AZD1208 μM:verteporfin μM=1:200). These are values of drug dose and effect (fraction of cells affected by the treatment—FA values). The treatment time is 72 hours.
as §2, with “6” for “5”, “Bafilomycin A1” for “verteporfin”, “μM:bafilomycin A1 μM=1:1).” for “μM:verteporfin μM=1:200).”, “48” for “72”

Compound: N[C@@H]1CCCN(c2c(/C=C3/SC(=O)NC3=O)cccc2-c2ccccc2)C1 [AZD1208, (5E)-5-[[2-[(3R)-3-aminopiperidin-1-yl]-3-phenylphenyl]methylidene]-1,3-thiazolidine-2,4-dione]
- Effect (FA, fraction affected) ([1]; AZD1208 alone 0.05 μM): 0.505
- Effect (FA, fraction affected) ([1]; AZD1208 alone 0.1 μM): 0.639
- Effect (FA, fraction affected) ([1]; AZD1208 alone 0.25 μM): 0.386
- Effect (FA, fraction of cells affected) (Molm16 cells; AZD1208 alone 0.00625 μM, Molm16, 48 hours, Table 6): 0.1716
- Effect (FA, fraction of cells affected) (Molm16 cells; AZD1208 alone 0.0125 μM, Molm16, 48 hours, Table 6): 0.2259
- Effect (FA, fraction of cells affected) (Molm16 cells; AZD1208 alone 0.0125 μM, Molm16, 72 hours, Table 4): 0.2413
- Effect (FA, fraction of cells affected) (Molm16 cells; AZD1208 alone 0.025 μM, Molm16, 48 hours, Table 6): 0.3615
- Effect (FA, fraction of cells affected) (Molm16 cells; AZD1208 alone 0.025 μM, Molm16, 72 hours, Table 4): 0.354
- Effect (FA, fraction of cells affected) (Molm16 cells; AZD1208 alone 0.05 μM, Molm16, 72 hours, Table 4): 0.5497
- Effect (FA, fraction of cells affected) (Molm16 cells; AZD1208 alone 0.05 μM, Molm16, 72 hours, Table 5): 0.4847
- Effect (FA, fraction of cells affected) (Molm16 cells; AZD1208 alone 0.1 μM, Molm16, 72 hours, Table 5): 0.6474

Compound: CCN(CC)CCCC(C)Nc1ccnc2cc(Cl)ccc12 (stereo not shown) [chloroquine]
- Effect (FA, fraction of cells affected) (Molm16 cells; chloroquine alone 10 μM, Molm16, 72 hours): 0.05357
- Effect (FA, fraction of cells affected) (Molm16 cells; chloroquine alone 20 μM, Molm16, 72 hours): 0.1376
- Effect (FA, fraction of cells affected) (Molm16 cells; chloroquine alone 40 μM, Molm16, 72 hours): 0.4647

Compound: CO/C1=C\C(C)=C\[C@@H](C)[C@@H](O)[C@@H](C)C/C(C)=C/C=C/[C@H](OC)[C@@H]([C@@H](C)[C@@H](O)[C@H](C)[C@@]2(O)C[C@@H](O)[C@H](C)[C@@H](C(C)C)O2)OC1=O [Bafilomycin A1]
- Effect (FA, fraction of cells affected) (Molm16 cells; Bafilomycin A1 alone 0.00625 μM, Molm16, 48 hours): 0.4744
- Effect (FA, fraction of cells affected) (Molm16 cells; Bafilomycin A1 alone 0.0125 μM, Molm16, 48 hours): 0.7998
- Effect (FA, fraction of cells affected) (Molm16 cells; Bafilomycin A1 alone 0.025 μM, Molm16, 48 hours): 0.8279

Compound: Verteporfin
- Effect (FA, fraction of cells affected) (Molm16 cells; Verteporfin alone 10 μM, Molm16, 72 hours): 0.08412
- Effect (FA, fraction of cells affected) (Molm16 cells; Verteporfin alone 20 μM, Molm16, 72 hours): 0.2143
